# Active and inactive are the calls of the source. No cut-off for these calls is given here.
# How the values were obtained:
# [1] = Oral bioavailability in rabbit at 10 mg/kg; assay type: ADME, organism-based, Oryctolagus cuniculus; details: in vivo
# [2] = Oral bioavailability in Wistar rat at 100 mg/kg; assay type: ADME, organism-based; details: in vivo
# Rattus norvegicus = assay: In-vivo agonist activity at FXR in orally dosed Han Wistar rat assessed as upregulation of SHP mRNA level in liver administered via oral gavage once daily for 14 days measured post last dose by qRT-PCR analysis; assay type: functional, organism-based
# Mus musculus [3] = organism: Mus musculus; assay: Anti Steato-hepatitic activity in C57BL/6J mouse STAM model assessed as change in OSTb gene level in liver; assay type: functional, organism-based
# [4] = Volume of distribution at steady state in mouse at 3 mg/kg, iv; assay type: ADME, organism-based; details: in vivo, read-out: Vdss
# Bile acid receptor = molecular target: T1, Bile acid receptor (Homo sapiens, UniProt Q96RI1); assay: Agonist activity at GST-tagged human FXR-LBD (193 to 472 residues) using biotinylated SRC-1 peptide as substrate incubated for 1 hrs by HTRF assay
# T1 sequence (Q96RI1 whole entry): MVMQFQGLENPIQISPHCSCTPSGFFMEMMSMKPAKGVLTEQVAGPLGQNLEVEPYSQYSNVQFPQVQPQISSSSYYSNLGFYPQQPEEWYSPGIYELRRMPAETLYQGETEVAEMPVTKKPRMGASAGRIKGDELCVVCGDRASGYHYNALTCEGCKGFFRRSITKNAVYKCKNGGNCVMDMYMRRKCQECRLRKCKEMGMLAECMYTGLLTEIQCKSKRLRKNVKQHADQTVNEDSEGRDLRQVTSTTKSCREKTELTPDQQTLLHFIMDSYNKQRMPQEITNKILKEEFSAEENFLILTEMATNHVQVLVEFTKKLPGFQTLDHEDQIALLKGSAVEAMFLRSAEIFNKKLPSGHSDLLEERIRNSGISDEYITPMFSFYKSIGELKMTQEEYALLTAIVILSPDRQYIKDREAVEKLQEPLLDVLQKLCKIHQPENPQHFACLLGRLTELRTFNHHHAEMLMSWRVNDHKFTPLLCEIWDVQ
# [5] = molecular target: T2, Bile acid receptor (Rattus norvegicus) (UniProt Q62735); assay: Agonist activity at FXR in rat primary hepatocytes assessed as increase in BSEP mRNA level incubated for 24 hrs by qRT-PCR analysis relative to tropifexor; assay type: cell-based
# T2 sequence (whole entry): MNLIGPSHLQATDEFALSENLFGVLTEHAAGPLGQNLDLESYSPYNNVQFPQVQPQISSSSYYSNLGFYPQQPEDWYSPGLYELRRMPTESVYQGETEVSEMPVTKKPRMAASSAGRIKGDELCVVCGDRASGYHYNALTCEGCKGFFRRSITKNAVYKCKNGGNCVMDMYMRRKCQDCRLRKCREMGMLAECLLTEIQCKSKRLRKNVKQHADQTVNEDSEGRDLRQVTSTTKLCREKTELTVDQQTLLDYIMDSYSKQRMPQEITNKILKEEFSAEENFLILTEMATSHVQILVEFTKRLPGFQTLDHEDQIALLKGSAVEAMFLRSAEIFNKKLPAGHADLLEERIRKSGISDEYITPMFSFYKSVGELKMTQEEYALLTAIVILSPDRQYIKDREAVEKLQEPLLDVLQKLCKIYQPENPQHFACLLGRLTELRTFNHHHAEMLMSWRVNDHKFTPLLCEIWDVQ
# [6] = molecular target: T3, Oxysterols receptor LXR-alpha (Homo sapiens, UniProt Q13133); assay: Agonist activity at GAL4-fused LXR LBD (unknown origin) expressed in HEK293T cells incubated for 24 by BrightGlo reagent based assay; assay type: cell-based
# T3 sequence (Q13133 whole entry): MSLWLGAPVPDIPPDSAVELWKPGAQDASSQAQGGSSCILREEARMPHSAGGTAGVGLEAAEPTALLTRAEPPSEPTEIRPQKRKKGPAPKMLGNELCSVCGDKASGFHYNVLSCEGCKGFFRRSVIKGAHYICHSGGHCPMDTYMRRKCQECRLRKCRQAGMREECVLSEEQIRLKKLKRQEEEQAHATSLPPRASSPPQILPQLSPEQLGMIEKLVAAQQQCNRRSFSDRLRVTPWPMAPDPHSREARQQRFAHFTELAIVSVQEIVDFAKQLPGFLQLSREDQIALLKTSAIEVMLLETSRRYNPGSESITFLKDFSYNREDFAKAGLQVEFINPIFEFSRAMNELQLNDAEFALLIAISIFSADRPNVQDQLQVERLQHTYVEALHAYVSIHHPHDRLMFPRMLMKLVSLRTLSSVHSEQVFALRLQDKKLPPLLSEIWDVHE
# [7] = Metabolic stability in rat liver microsomes assessed as hepatic extraction ratio; assay type: ADME, Microsome; details: read-out: ERH
# [8] = Volume of distribution at steady state in rabbit at 5 mg/kg, iv; assay type: ADME, organism-based, Oryctolagus cuniculus; details: in vivo, read-out: Vdss
# Estrogen receptor = molecular target: T4, Estrogen receptor (Homo sapiens, UniProt P03372); assay: Agonist activity at ERalpha (unknown origin) incubated for 2 hrs by TR-FRET assay
# T4 sequence (P03372 whole entry): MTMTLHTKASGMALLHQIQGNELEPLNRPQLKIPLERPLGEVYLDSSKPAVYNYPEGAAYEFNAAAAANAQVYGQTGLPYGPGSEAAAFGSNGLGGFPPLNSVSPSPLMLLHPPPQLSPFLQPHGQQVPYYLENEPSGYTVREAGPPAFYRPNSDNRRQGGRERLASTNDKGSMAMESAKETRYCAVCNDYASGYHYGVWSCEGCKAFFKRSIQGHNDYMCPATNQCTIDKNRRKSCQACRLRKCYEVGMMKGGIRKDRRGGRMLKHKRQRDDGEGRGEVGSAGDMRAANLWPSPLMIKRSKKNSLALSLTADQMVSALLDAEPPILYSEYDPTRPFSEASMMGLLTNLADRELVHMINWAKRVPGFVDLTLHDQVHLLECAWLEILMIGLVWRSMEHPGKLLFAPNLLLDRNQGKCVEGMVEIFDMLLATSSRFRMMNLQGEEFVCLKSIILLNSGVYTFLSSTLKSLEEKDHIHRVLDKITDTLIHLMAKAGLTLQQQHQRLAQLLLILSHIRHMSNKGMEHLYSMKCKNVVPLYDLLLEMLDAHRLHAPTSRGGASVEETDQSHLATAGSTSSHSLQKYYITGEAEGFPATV
# [9] = Cmax in Wistar rat at 10 mg/kg, po; assay type: ADME, organism-based; parameters: dose 10 mg/kg, route oral; details: in vivo
# Mus musculus [10] = assay: Anti Steato-hepatitic activity in STZ/HFD induced oral dosed C57BL/6J mouse STAM model assessed as reduction in inflammatory cell infiltration administered via oral gavage once daily for 3 weeks and measured on 9 week by H and E staining based assay; assay type: functional, organism-based
# [11] = Oral bioavailability in Wistar rat at 10 mg/kg in presence of TRIS salt; assay type: ADME, organism-based; details: in vivo
# Mus musculus [12] = organism: Mus musculus; assay: Anti Steato-hepatitic activity in C57BL/6J mouse STAM model assessed as change in Map3k13 gene level in liver; assay type: functional, organism-based
# [13] = Oral bioavailability in Wistar rat at 100 mg/kg in presence of TRIS salt; assay type: ADME, organism-based; details: in vivo
# [14] = Permeability of the compound by PAMPA; assay type: ADME
# [15] = Metabolic stability in human liver microsomes assessed as hepatic extraction ratio; assay type: ADME, Microsome; details: read-out: ERH
# [16] = Cmax in Wistar rat at 30 mg/kg, po; assay type: ADME, organism-based; parameters: dose 30 mg/kg, route oral; details: in vivo
# [17] = Oral bioavailability in dog at 2 mg/kg; assay type: ADME, organism-based, Canis lupus familiaris; details: in vivo
# [18] = Cmax in Wistar rat at 3 mg/kg, po; assay type: ADME, organism-based; parameters: dose 3 mg/kg, route oral; details: in vivo
structure (smiles),measurement,setting,value
Cn1nc(C(=O)N(Cc2ccccc2)Cc2ccc(C(=O)O)cc2)c2c1-c1cc(Cl)ccc1OC2 [NIDUFEXOR],bioavailability,[1],52%
same,bioavailability,[2],82%
same,Activity,Rattus norvegicus,Dose-dependent effect
same,Activity,Mus musculus [3],Active
same,Vd,[4],0.9 L/kg
same,EC50,Bile acid receptor,0.007 µM
same,Activity,[5],3.7%
same,EC50,[6],> 10 µM
same,hepatic extraction ratio,[7],< 0.18
same,Vd,[8],0.6 L/kg
same,EC50,Estrogen receptor,> 30 µM
same,Cmax,[9],12.4 µM
same,Activity,Mus musculus [10],Dose-dependent effect
same,bioavailability,[11],52%
same,Activity,Mus musculus [12],Active
same,bioavailability,[13],82%
same,permeability,[14],94%
same,hepatic extraction ratio,[15],< 0.21
same,Cmax,[16],28.1 µM
same,bioavailability,[17],80%
same,Cmax,[18],4.5 µM

# — ChEMBL document CHEMBL4402557, “Nidufexor (LMB763), a Novel FXR Modulator for the Treatment of Nonalcoholic Steatohepatitis” (J Med Chem, 2020)
